The molecules below were run against T1, human PKCθ full length enzyme (Homo sapiens, UniProt Q04759) (assay: PKCθ IMAP Assay). Conditions: average value when one or more samples were tested; ATP 6 uM, PKCθ 1 nM.
T1 construct: human PKCθ full length enzyme (Panvera Catalog No. P2996); purchased Panvera P2996
Assay type: biochemical
Outline: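 IMAP fluorescence polarization after 20 min with binding beads measured phosphorylation of 100 nM 5FAM-peptide. Reactions held 1 nM full-length human PKCθ, 6 uM ATP, 5% DMSO and DTT-containing buffer, 25 min at room temperature. Compounds tested as 2:1 serial dilutions; controls lacked ATP or enzyme.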

T1 sequence (Q04759 whole entry): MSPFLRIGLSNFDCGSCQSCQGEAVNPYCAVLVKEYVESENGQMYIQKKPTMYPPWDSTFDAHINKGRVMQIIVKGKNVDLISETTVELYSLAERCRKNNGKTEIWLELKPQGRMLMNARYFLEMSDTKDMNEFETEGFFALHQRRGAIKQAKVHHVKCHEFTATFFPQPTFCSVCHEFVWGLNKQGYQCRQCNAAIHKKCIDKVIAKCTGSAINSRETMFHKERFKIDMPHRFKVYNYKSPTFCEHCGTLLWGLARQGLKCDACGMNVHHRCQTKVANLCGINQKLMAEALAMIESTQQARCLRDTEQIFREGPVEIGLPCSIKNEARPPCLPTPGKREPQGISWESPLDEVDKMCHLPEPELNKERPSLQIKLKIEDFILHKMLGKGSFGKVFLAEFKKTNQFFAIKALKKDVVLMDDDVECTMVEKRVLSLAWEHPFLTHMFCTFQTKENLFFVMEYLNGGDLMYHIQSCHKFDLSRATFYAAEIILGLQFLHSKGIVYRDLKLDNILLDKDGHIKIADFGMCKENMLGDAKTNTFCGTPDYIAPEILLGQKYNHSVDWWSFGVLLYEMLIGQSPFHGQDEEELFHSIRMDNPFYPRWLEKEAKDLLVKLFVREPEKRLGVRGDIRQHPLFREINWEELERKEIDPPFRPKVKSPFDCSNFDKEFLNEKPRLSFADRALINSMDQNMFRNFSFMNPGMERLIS

Compared with `Cc1c(Nc2c(C#N)cnc3sc(-c4ccc(S(=O)(=O)NCCO)cc4)c(C)c23)ccc2[nH]ccc12` [Compound 431, 4-{5-cyano-3-methyl-4-[(4-methyl-1H-indol-5-yl)amino]thieno[2,3-b]pyridin-2-yl}-N-(2-hydroxyethyl)benzenesulfonamide], `Cc1c(Nc2c(C#N)cnc3sc(-c4ccc(CN(C)C)cc4)c(C)c23)ccc2[nH]ccc12` [Compound 460, 2-{4-[(dimethylamino)methyl]phenyl}-3-methyl-4-[(4-methyl-1H-indol-5-yl)amino]thieno[2,3-b]pyridine-5-carbonitrile] is 1.8-fold lower in IC50: 110 nM for the first, 61 nM for the second.

Compared with `Cc1c(Nc2c(C#N)cnc3sc(-c4nccn4C)cc23)ccc2[nH]ccc12` [Compound 432, 2-(1-methyl-1H-imidazol-2-yl)-4-[(4-methyl-1H-indol-5-yl)amino]thieno[2,3-b]pyridine-5-carbonitrile], `Cn1ccnc1-c1cc2c(Nc3ccc4[nH]ccc4c3)c(C#N)cnc2s1` [Compound 433, 4-(1H-indol-5-ylamino)-2-(1-methyl-1H-imidazol-2-yl)thieno[2,3-b]pyridine-5-carbonitrile] is 11-fold higher in IC50: 49 nM for the first, 527 nM for the second. The first is the more potent here.

Going from `Cc1c(Nc2c(C#N)cnc3sc(-c4cc5ccccc5[nH]4)cc23)ccc2[nH]ccc12` [Compound 434, 2-(1H-indol-2-yl)-4-[(4-methyl-1H-indol-5-yl)amino]thieno[2,3-b]pyridine-5-carbonitrile] to `Cc1c(Nc2c(C#N)cnc3sc(-c4ccccc4N)cc23)ccc2[nH]ccc12` [Compound 436, 2-(2-aminophenyl)-4-[(4-methyl-1H-indol-5-yl)amino]thieno[2,3-b]pyridine-5-carbonitrile], the IC50 rises from 70 nM to 215 nM (3.1-fold).

`CC(=O)Nc1ccccc1-c1cc2c(Nc3ccc4[nH]ccc4c3C)c(C#N)cnc2s1` [Compound 435, N-(2-{5-cyano-4-[(4-methyl-1H-indol-5-yl)amino]thieno[2,3-b]pyridin-2-yl}phenyl)acetamide] and `Cc1c(Nc2c(C#N)cnc3sc(-c4ccccc4O)cc23)ccc2[nH]ccc12` [Compound 442, 2-(2-hydroxyphenyl)-4-[(4-methyl-1H-indol-5-yl)amino]thieno[2,3-b]pyridine-5-carbonitrile] are within 1.5-fold of each other in IC50: 282 nM for the first, 273 nM for the second.

Going from `Cc1c(Nc2c(C#N)cnc3sc(-c4cccc(O)c4)cc23)ccc2[nH]ccc12` [Compound 437, 2-(3-hydroxyphenyl)-4-[(4-methyl-1H-indol-5-yl)amino]thieno[2,3-b]pyridine-5-carbonitrile] to `Cc1c(Nc2c(C#N)cnc3sc(-c4ccc(O)cc4)cc23)ccc2[nH]ccc12` [Compound 441, 2-(4-hydroxyphenyl)-4-[(4-methyl-1H-indol-5-yl)amino]thieno[2,3-b]pyridine-5-carbonitrile], the IC50 rises from 11 nM to 29 nM (2.6-fold).

`Cc1c(Nc2c(C#N)cnc3sc(-c4cccnc4)cc23)ccc2[nH]ccc12` [Compound 438, 4-[(4-methyl-1H-indol-5-yl)amino]-2-pyridin-3-ylthieno[2,3-b]pyridine-5-carbonitrile] and `Cc1c(Nc2c(C#N)cnc3sc(-c4ccncc4)cc23)ccc2[nH]ccc12` [Compound 439, 4-[(4-methyl-1H-indol-5-yl)amino]-2-pyridin-4-ylthieno[2,3-b]pyridine-5-carbonitrile] are within 1.5-fold of each other in IC50: 14 nM for the first, 13 nM for the second.

Going from `Cc1c(Nc2c(C#N)cnc3sc(-c4ccccn4)cc23)ccc2[nH]ccc12` [Compound 440, 4-[(4-methyl-1H-indol-5-yl)amino]-2-pyridin-2-ylthieno[2,3-b]pyridine-5-carbonitrile] to `Cc1c(Nc2c(C#N)cnc3sc(-c4cncc(CN(C)C)c4)cc23)ccc2[nH]ccc12` [Compound 462, 2-{5-[(dimethylamino)methyl]pyridin-3-yl}-4-[(4-methyl-1H-indol-5-yl)amino]thieno[2,3-b]pyridine-5-carbonitrile], the IC50 rises from 16 nM to 83 nM (5.2-fold).

First: Cc1c(Nc2c(C#N)cnc3sc(C#CCCN4CCN(C)CC4)cc23)ccc2[nH]ccc12 [Compound 450, 4-[(4-methyl-1H-indol-5-yl)amino]-2-[4-(4-methylpiperazin-1-yl)but-1-yn-1-yl]thieno[2,3-b]pyridine-5-carbonitrile]
Second: COc1ccc(CN2CCN(C)CC2)cc1-c1cc2c(Nc3ccc4[nH]ccc4c3C)c(C#N)cnc2s1 [Compound 461, 2-{2-methoxy-5-[(4-methylpiperazin-1-yl)methyl]phenyl}-4-[(4-methyl-1H-indol-5-yl)amino]thieno[2,3-b]pyridine-5-carbonitrile]
The IC50 of the first is 21-fold higher: 126 nM for the first, 6 nM for the second.

Compared with `Cc1cc(CN(C)C)cc(-c2cc3c(Nc4ccc5[nH]ccc5c4C)c(C#N)cnc3s2)c1` [Compound 454, 2-{3-[(dimethylamino)methyl]-5-methylphenyl}-4-[(4-methyl-1H-indol-5-yl)amino]thieno[2,3-b]pyridine-5-carbonitrile], `Cc1c(Nc2c(C#N)cnc3sc(-c4cc(CN(C)C)ccc4F)cc23)ccc2[nH]ccc12` [Compound 463, 2-{5-[(dimethylamino)methyl]-2-fluorophenyl}-4-[(4-methyl-1H-indol-5-yl)amino]thieno[2,3-b]pyridine-5-carbonitrile] is 1.8-fold higher in IC50: 8 nM for the first, 14 nM for the second.

Going from `CCCOc1c(CN(C)C)cc(C)cc1-c1cc2c(Nc3ccc4[nH]ccc4c3C)c(C#N)cnc2s1` [Compound 455, 2-{3-[(dimethylamino)methyl]-5-methyl-2-propoxyphenyl}-4-[(4-methyl-1H-indol-5-yl)amino]thieno[2,3-b]pyridine-5-carbonitrile] to `COc1ccc(CN(C)C)cc1-c1cc2c(Nc3ccc4[nH]ccc4c3C)c(C#N)cnc2s1` [Compound 457, 2-{5-[(dimethylamino)methyl]-2-methoxyphenyl}-4-[(4-methyl-1H-indol-5-yl)amino]thieno[2,3-b]pyridine-5-carbonitrile], the IC50 falls from 29 nM to 5 nM (5.8-fold). The second is the more potent here.

Compared with `COc1ccc(-c2cc3c(Nc4ccc5[nH]ccc5c4)c(C#N)cnc3s2)cc1CN(C)C` [Compound 456, 2-{3-[(dimethylamino)methyl]-4-methoxyphenyl}-4-(1H-indol-5-ylamino)thieno[2,3-b]pyridine-5-carbonitrile], `CN(C)Cc1cscc1-c1cc2c(Nc3ccc4[nH]ccc4c3)c(C#N)cnc2s1` [Compound 464, 2-{4-[(dimethylamino)methyl]-3-thienyl}-4-(1H-indol-5-ylamino)thieno[2,3-b]pyridine-5-carbonitrile] is 4.1-fold lower in IC50: 318 nM for the first, 77 nM for the second.

Compared with `Cc1c(Nc2c(C#N)cnc3sc(-c4cccc(CN(C)C)c4)c(C)c23)ccc2[nH]ccc12` [Compound 458, 2-{3-[(dimethylamino)methyl]phenyl}-3-methyl-4-[(4-methyl-1H-indol-5-yl)amino]thieno[2,3-b]pyridine-5-carbonitrile], `COc1ccc(CN(C)C)cc1-c1sc2ncc(C#N)c(Nc3ccc4[nH]ccc4c3C)c2c1C` [Compound 459, 2-{5-[(dimethylamino)methyl]-2-methoxyphenyl}-3-methyl-4-[(4-methyl-1H-indol-5-yl)amino]thieno[2,3-b]pyridine-5-carbonitrile] is 2.5-fold higher in IC50: 99 nM for the first, 243 nM for the second. The first is the more potent here.

With `CN(C)Cc1ccc2sc(-c3cc4c(Nc5ccc6[nH]ccc6c5)c(C#N)cnc4s3)cc2c1` [Compound 465, 2-{5-[(dimethylamino)methyl]-1-benzothien-2-yl}-4-(1H-indol-5-ylamino)thieno[2,3-b]pyridine-5-carbonitrile] the IC50 was 49 nM.
